EPSA data for 11 compounds are collected here from patent publication US20260022143A1, “Cyclic Peptide Inhibitors of IL-23” (JANSSEN PHARMACEUTICA NV, priority 2022, published 2026).

Each structure is given as a SMILES string. Positions of bridges follow the written chain, without caps; N, C: chain ends. Non-standard residues stand in square brackets, D forms with d. Residues, ends and D or L forms follow the SMILES beside them. *: point of attachment. Trp(7-(3-AcNH-Ph)) = CC(=O)Nc1cccc(-c2cccc3c(C[C@H](N)C(=O)O)c[nH]c23)c1; Me3N+(CH2)2O(CH2)2O(CH2)2CO = C[N+](C)(C)CCOCCOCCC(=O)*; X34 = C[N+](C)(C)CCOCCOCCC(=O)N(CC[N+](C)(C)C)CC*; CH2CH2OCH2CH2OCH2CH2NMe3+ = C[N+](C)(C)CCOCCOCC*; Trp(7-Me) = Cc1cccc2c(C[C@H](N)C(=O)O)c[nH]c12; X28 = CCCCCCCCCCCCCCCC[N+](C)(C)CCc1cn(CC*)nn1; 2Nal = N[C@@H](Cc1ccc2ccccc2c1)C(=O)O; AEF = NCCOc1ccc(C[C@H](N)C(=O)O)cc1; dNMeY = CN[C@H](Cc1ccc(O)cc1)C(=O)O; 3Pal = N[C@@H](Cc1cccnc1)C(=O)O; Lys(Me) = CNCCCC[C@H](N)C(=O)O; Pen = CC(C)(S)[C@H](N)C(=O)O; αMeK = C[C@](N)(CCCCN)C(=O)O; Thp = NC1(C(=O)O)CCOCC1; X3 = C[N+](C)(C)CCCCC*; X76 = N=C(N)NCCOCCOCC*; X42 = O=C(O)CCCCCCCC*; Sar = CNCC(=O)O

The nature of one data set: Exposed Polar Surface Area (EPSA). The format is physicochemical. The following applies: SFC on Chirex 3014 column; sample 1 mM DMSO stock. The procedure, abridged: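 Polarity measured by SFC on a Chirex 3014 column (35 °C, 4 mL/min) with methanol/ammonium formate in CO2 as gradient eluent. Retention times were normalised to EPSA (Å^2) against eight reference compounds.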
Compound `CC(=O)NCCCC[C@H](NC(=O)[C@](C)(CCCCN)NC(=O)[C@H](Cc1ccc2ccccc2c1)NC(=O)[C@H](Cc1ccc(OCCN)cc1)NC(=O)[C@H]1NC(=O)[C@H](Cc2ccc(O)cc2)NC(=O)[C@H](Cc2c[nH]c3c(C)cccc23)NC(=O)[C@H]([C@@H](C)O)NC(=O)[C@H](CC(N)=O)NC(=O)[C@@H](NC(C)=O)C(C)(C)SSC1(C)C)C(=O)N[C@@H](CC(N)=O)C(=O)N[C@H](CCCCN)C(=O)N(C)[C@H](Cc1ccc(O)cc1)C(N)=O` [compound 21, MeCO-Pen(3)-N-T-7MeW-Y-Pen(3)-AEF-2Nal-aMeK-K(Ac)-N-k-NMeDTyr-CONH2] (Ac-[Pen]NT[Trp(7-Me)]Y[Pen][AEF][2Nal][αMeK]K(Ac)N[dK][dNMeY]-NH2; disulfide 1-6 (inferred)) gave an EPSA of 170.27 Å^2.

The data set is the same for the next values; noted with them: SFC on Chirex 3014 column; sample 1 mM DMSO stock; read-out: EPSA.
In the case of `CC(=O)NCCCC[C@@H]1NC(=O)[C@H](Cc2c[nH]c3c(-c4cccc(NC(C)=O)c4)cccc23)NC(=O)[C@H]([C@@H](C)O)NC(=O)[C@H](CC(N)=O)NC(=O)[C@@H](NC(=O)CCOCCOCC[N+](C)(C)C)C(C)(C)SSC(C)(C)[C@@H](C(=O)N[C@@H](Cc2ccc(OCCN)cc2)C(=O)N[C@@H](Cc2ccc3ccccc3c2)C(=O)NC2(C(=O)N[C@@H](CCCCNC(C)=O)C(=O)N[C@@H](CC(N)=O)C(=O)N[C@@H](Cc3cccnc3)C(=O)N(C)CC(N)=O)CCOCC2)NC1=O` [compound 445, cPEG3aCO-Pen(3)-N-T-7(3NAcPh)W-K(Ac)-Pen(3)-AEF-2Nal-THP-K(Ac)-N-3Pya-Sar-CONH2] ({Me3N+(CH2)2O(CH2)2O(CH2)2CO}-[Pen]NT[Trp(7-(3-AcNH-Ph))]K(Ac)[Pen][AEF][2Nal][Thp]K(Ac)N[3Pal][Sar]-NH2; disulfide 1-6), the EPSA is 176 A^2.

As to `CCCCCCCCCCCCCCCC[N+](C)(C)CCc1cn(CCOc2ccc(C[C@H](NC(=O)[C@H]3NC(=O)[C@H](CCCCNC(C)=O)NC(=O)[C@H](Cc4c[nH]c5c(C)cccc45)NC(=O)[C@H]([C@@H](C)O)NC(=O)[C@H](CC(N)=O)NC(=O)[C@@H](NC(C)=O)C(C)(C)SSC3(C)C)C(=O)N[C@@H](Cc3ccc4ccccc4c3)C(=O)NC3(C(=O)N[C@@H](CCCCNC(C)=O)C(=O)N[C@@H](CC(N)=O)C(=O)N[C@@H](Cc4cccnc4)C(=O)N(C)CC(N)=O)CCOCC3)cc2)nn1` [compound 259] (Ac-[Pen]NT[Trp(7-Me)]K(Ac)[Pen]Y(X28)[2Nal][Thp]K(Ac)N[3Pal][Sar]-NH2; disulfide 1-6), the EPSA was 149 A^2.

For `CC(=O)NCCCC[C@H](NC(=O)[C@](C)(CCCCN)NC(=O)[C@H](Cc1ccc2ccccc2c1)NC(=O)[C@H](Cc1ccc(OCCN)cc1)NC(=O)[C@H]1NC(=O)[C@H](Cc2ccc(O)cc2)NC(=O)[C@H](Cc2c[nH]c3c(C)cccc23)NC(=O)[C@H]([C@@H](C)O)NC(=O)[C@H](CC(N)=O)NC(=O)[C@@H](NC(C)=O)C(C)(C)SSC1(C)C)C(=O)N[C@@H](CC(N)=O)C(=O)N[C@H](CCCCN)C(=O)N(C)[C@H](Cc1ccc(O)cc1)C(N)=O` [compound 21, MeCO-Pen(3)-N-T-7MeW-Y-Pen(3)-AEF-2Nal-aMeK-K(Ac)-N-k-NMeDTyr-CONH2] (Ac-[Pen]NT[Trp(7-Me)]Y[Pen][AEF][2Nal][αMeK]K(Ac)N[dK][dNMeY]-NH2; disulfide 1-6 (inferred)), the EPSA was found to be 152 A^2.

On to `CC(=O)NCCCC[C@@H]1NC(=O)[C@H](Cc2c[nH]c3c(C)cccc23)NC(=O)[C@H]([C@@H](C)O)NC(=O)[C@H](CC(N)=O)NC(=O)[C@@H](NC(C)=O)C(C)(C)SSC(C)(C)[C@@H](C(=O)N[C@@H](Cc2ccc(OCCN)cc2)C(=O)N[C@@H](Cc2ccc3ccccc3c2)C(=O)N[C@@](C)(CCCCN)C(=O)N[C@@H](CCCCNC(C)=O)C(=O)N[C@@H](CC(N)=O)C(=O)N[C@H](Cc2c[nH]cn2)C(=O)N(C)[C@H](Cc2ccc(O)cc2)C(N)=O)NC1=O` [compound 26, MeCO-Pen(3)-N-T-7MeW-K(Ac)-Pen(3)-AEF-2Nal-aMeK-K(Ac)-N-h-NMeDTyr-CONH2] (Ac-[Pen]NT[Trp(7-Me)]K(Ac)[Pen][AEF][2Nal][αMeK]K(Ac)N[dH][dNMeY]-NH2; disulfide 1-6 (inferred)), for which the EPSA was determined as 148 A^2.

Take `CC(=O)N(C)CCCC[C@@H]1NC(=O)[C@H](Cc2c[nH]c3c(C)cccc23)NC(=O)[C@H]([C@@H](C)O)NC(=O)[C@H](CC(=O)N(C)C)NC(=O)[C@@H](NC(=O)CCOCCOCC[N+](C)(C)C)C(C)(C)SSC(C)(C)[C@@H](C(=O)N[C@@H](Cc2ccc(OCCCCCCCCC(=O)O)cc2)C(=O)N[C@@H](Cc2ccc3ccccc3c2)C(=O)NC2(C(=O)N[C@@H](CCCCN(C)C(C)=O)C(=O)N[C@@H](CC(N)=O)C(=O)N[C@@H](Cc3cccnc3)C(=O)N(C)CC(=O)N(C)C)CCOCC2)NC1=O` [compound 236, cPEG3aCO-Pen(3)-N(N(Me)2)-T-7MeW-K(NMeAc)-Pen(3)-Y(C9OH)-2Nal-THP-K(NMeAc)-N-3Pya-Sar-CON(Me)2] ({Me3N+(CH2)2O(CH2)2O(CH2)2CO}-[Pen]D(NMe2)T[Trp(7-Me)][Lys(Me)](Ac)[Pen]Y(X42)[2Nal][Thp][Lys(Me)](Ac)N[3Pal][Sar]-NMe2; disulfide 1-6): the EPSA stood at 159 A^2.

In the case of `CC(=O)NCCCC[C@@H]1NC(=O)[C@H](Cc2c[nH]c3c(C)cccc23)NC(=O)[C@H]([C@@H](C)O)NC(=O)[C@H](CC(N)=O)NC(=O)[C@@H](NC(C)=O)C(C)(C)SSC(C)(C)[C@@H](C(=O)N[C@@H](Cc2ccc(OCCN)cc2)C(=O)N[C@@H](Cc2ccc3ccccc3c2)C(=O)NC2(C(=O)N[C@@H](CCCCNC(C)=O)C(=O)N[C@@H](CC(N)=O)C(=O)N[C@@H](Cc3cccnc3)C(=O)N(C)CC(=O)N(C)C)CCOCC2)NC1=O` [compound 282] (Ac-[Pen]NT[Trp(7-Me)]K(Ac)[Pen][AEF][2Nal][Thp]K(Ac)N[3Pal][Sar]-NMe2; disulfide 1-6), the EPSA worked out at 163 A^2.

`CC(=O)NCCCC[C@@H]1NC(=O)[C@H](Cc2c[nH]c3c(C)cccc23)NC(=O)[C@H]([C@@H](C)O)NC(=O)[C@H](CC(N)=O)NC(=O)[C@@H](NC(=O)CCOCCOCC[N+](C)(C)C)C(C)(C)SSC(C)(C)[C@@H](C(=O)N[C@@H](Cc2ccc(OCCOCCOCC[N+](C)(C)C)cc2)C(=O)N[C@@H](Cc2ccc3ccccc3c2)C(=O)NC2(C(=O)N[C@@H](CCCCNC(C)=O)C(=O)N[C@@H](CC(N)=O)C(=O)N[C@@H](Cc3cccnc3)C(=O)N(C)CC(N)=O)CCOCC2)NC1=O` [compound 195, cPEG3aCO-Pen(3)-N-T-7MeW-K(Ac)-Pen(3)-APEG3F-2Nal-THP-K(Ac)-N-3Pya-Sar-CONH2] ({Me3N+(CH2)2O(CH2)2O(CH2)2CO}-[Pen]NT[Trp(7-Me)]K(Ac)[Pen]Y(CH2CH2OCH2CH2OCH2CH2NMe3+)[2Nal][Thp]K(Ac)N[3Pal][Sar]-NH2; disulfide 1-6): the EPSA was 147 A^2.

With `CC(=O)N[C@@H]1C(=O)N[C@@H](CC(=O)N(C)C)C(=O)N[C@@H]([C@@H](C)O)C(=O)N[C@@H](Cc2c[nH]c3c(C)cccc23)C(=O)N[C@@H](COCCOCC[N+](C)(C)C)C(=O)N[C@H](C(=O)N[C@@H](Cc2ccc(OCCOCCOCC[N+](C)(C)C)cc2)C(=O)N[C@@H](Cc2ccc3ccccc3c2)C(=O)NC2(C(=O)N[C@@H](COCCOCC[N+](C)(C)C)C(=O)N[C@@H](CC(N)=O)C(=O)N[C@@H](Cc3cccnc3)C(=O)N(C)CC(=O)N(C)C)CCOCC2)C(C)(C)SSC1(C)C` (relative stereo) [compound 256, MeCO-Pen(3)-N(N(Me)2)-T-7MeW-APEG2Ser(S*)-Pen(3)-APEG3F-2Nal-THP-APEG2Ser(S*)-N-3Pya-Sar-CON(Me)2], the EPSA was 142 A^2.

Consider `CC(=O)N(C)CCCC[C@@H]1NC(=O)[C@H](Cc2c[nH]c3c(C)cccc23)NC(=O)[C@H]([C@@H](C)O)NC(=O)[C@H](CC(=O)N(C)C)NC(=O)[C@@H](NC(=O)CCOCCOCC[N+](C)(C)C)C(C)(C)SSC(C)(C)[C@@H](C(=O)N[C@@H](Cc2ccc(OCCCCC[N+](C)(C)C)cc2)C(=O)N[C@@H](Cc2ccc3ccccc3c2)C(=O)NC2(C(=O)N[C@@H](CCC(=O)N(C)C)C(=O)N[C@@H](CC(N)=O)C(=O)N[C@@H](Cc3cccnc3)C(=O)N(C)CC(=O)N(C)C)CCOCC2)NC1=O` [compound 310, cPEG3aCO-Pen(3)-N(N(Me)2)-T-7MeW-K(NMeAC)-Pen(3)-TMAPF-2Nal-THP-Q(N(Me)2)-N-3Pya-Sar-CON(Me)2] ({Me3N+(CH2)2O(CH2)2O(CH2)2CO}-[Pen]D(NMe2)T[Trp(7-Me)][Lys(Me)](Ac)[Pen]Y(X3)[2Nal][Thp]E(NMe2)N[3Pal][Sar]-NMe2; disulfide 1-6), for which the EPSA was determined as 152 A^2.

For the compound `CC(=O)N(C)CCCC[C@@H]1NC(=O)[C@H](Cc2c[nH]c3c(C)cccc23)NC(=O)[C@H]([C@@H](C)O)NC(=O)[C@H](CC(=O)N(C)C)NC(=O)[C@@H](NC(=O)CCOCCOCC[N+](C)(C)C)C(C)(C)SSC(C)(C)[C@@H](C(=O)N[C@@H](Cc2ccc(OCCN(CC[N+](C)(C)C)C(=O)CCOCCOCC[N+](C)(C)C)cc2)C(=O)N[C@@H](Cc2ccc3ccccc3c2)C(=O)NC2(C(=O)N[C@@H](CCCCN(C)C(C)=O)C(=O)N[C@@H](CC(N)=O)C(=O)N[C@@H](Cc3cccnc3)C(=O)N(C)CC(=O)N(C)C)CCOCC2)NC1=O` [compound 208, cPEG3aCO-Pen(3)-N(N(Me)2)-T-7MeW-K(NMeAc)-Pen(3)-AEF((Ch)cPEG3a)-2Nal-THP-K(NMeAc)-N-3Pya-Sar-CON(Me)2] ({Me3N+(CH2)2O(CH2)2O(CH2)2CO}-[Pen]D(NMe2)T[Trp(7-Me)][Lys(Me)](Ac)[Pen]Y(X34)[2Nal][Thp][Lys(Me)](Ac)N[3Pal][Sar]-NMe2; disulfide 1-6), the EPSA is 141 A^2.

Turning to `CC(=O)N(C)CCCC[C@@H]1NC(=O)[C@H](Cc2c[nH]c3c(C)cccc23)NC(=O)[C@H]([C@@H](C)O)NC(=O)[C@H](CC(=O)N(C)C)NC(=O)[C@@H](NC(=O)CCOCCOCC[N+](C)(C)C)C(C)(C)SSC(C)(C)[C@@H](C(=O)N[C@@H](Cc2ccc(OCCOCCOCCNC(=N)N)cc2)C(=O)N[C@@H](Cc2ccc3ccccc3c2)C(=O)NC2(C(=O)N[C@@H](CCCCN(C)C(C)=O)C(=O)N[C@@H](CC(N)=O)C(=O)N[C@@H](Cc3cccnc3)C(=O)N(C)CC(=O)N(C)C)CCOCC2)NC1=O` [compound 405, cPEG3aCO-Pen(3)-N(N(Me)2)-T-7MeW-K(NMeAc)-Pen(3)-GPEG3F-2Nal-THP-K(NMeAc)-N-3Pya-Sar-CON(Me)2] ({Me3N+(CH2)2O(CH2)2O(CH2)2CO}-[Pen]D(NMe2)T[Trp(7-Me)][Lys(Me)](Ac)[Pen]Y(X76)[2Nal][Thp][Lys(Me)](Ac)N[3Pal][Sar]-NMe2; disulfide 1-6), the EPSA amounted to 157 A^2.
